Experimental data taken from patent publication US20030125269A1, “T-TYPE CALCIUM CHANNEL” (priority 1998, published 2003).
Entries after “also recorded” stand apart in the source; their conditions may differ. Structures can show the parent of a compound that is named as a salt.

Key:
[1] = system: INS-1 cells; assay: Basal [Ca^2+]i in INS-1 cells by fura-2 fluorescence; format: cell-based, rat
Protocol: [Ca^2+]i was directly measured by the ratio of fluorescence excitations at Ca^2+-bound […], and then the ratio was converted to the calcium concentration. The bath solution contained […], 4 mM KCl, 2 mM CaCl2, and 2 mM MgCl2.
The effect of basal [Ca^2+]i on Ca^2+ influx was examined using the Ca^2+ dye indicator fura-2 and fluorescence measurements. Voltage-dependent Ca^2+ influx in a single cell was obtained by perfusion of an osmotically balanced solution containing 50 mM KCl into the recording chamber. […] The resting basal [Ca^2+]i in INS-1 cells was approximately 60-80 nM under the experimental conditions. [Ca^2+]i was determined by a standard curve obtained from a fura-2 calcium imaging kit (Molecule Probes). The empirical Kd obtained for calcium binding to fura-2 in the system was 296±20 nM. When basal [Ca^2+]i remains low, subsequent voltage stimulation with 50 KCl induces rapid and large calcium influx into the cell and these calcium changes are stereotyped upon repetitive stimulation when basal calcium is restored (FIG. 10). In this experiment, following the 50 KCl depolarization, the cell was repolarized by perfusion of the original 5 mM KCl solution. After repolarization, basal [Ca^2+]i slowly reset and then a second 50 KCl depolarization induced a similar [Ca^2+]i transient. When the basal calcium is not allowed to reset, a defect in the second voltage induced calcium transient occurs (FIG. 11). […] Therefore effectors of basal [Ca^2+]i will have important impact on the amount of calcium that can enter the cell.

[2] = system: NIT-1 cells; assay: Spontaneous elevation of [Ca^2+]i in NIT-1 cells, Fluo-3 fluorescent imaging; format: cell-based, mouse; settings: 10 μM, 3.3 mM glucose, 10 minute observation
Protocol: NIT-1 cells were cultured in medium containing 3.3 mM glucose and preloaded with 2.5 μM Fluo-3 μM. The numbers of spontaneous calcium elevated cells were counted and compared to the total cells being used for a 10 minute observation period. 10 μM NiCl2 inhibited 90% of spontaneous elevation of basal Ca^2+.

[3] = target: T-type Ca^2+ current (Rattus norvegicus, UniProt O54898); assay: Patch clamp recording of T-type Ca^2+ current in insulin-secreting (INS-1) cells; format: cell-based; settings: for reversibility of the inhibition of T-type Ca^2+ current: small volume delivered near the cell
T-type Ca^2+ current (Rattus norvegicus, UniProt O54898), sequence (O54898 whole entry): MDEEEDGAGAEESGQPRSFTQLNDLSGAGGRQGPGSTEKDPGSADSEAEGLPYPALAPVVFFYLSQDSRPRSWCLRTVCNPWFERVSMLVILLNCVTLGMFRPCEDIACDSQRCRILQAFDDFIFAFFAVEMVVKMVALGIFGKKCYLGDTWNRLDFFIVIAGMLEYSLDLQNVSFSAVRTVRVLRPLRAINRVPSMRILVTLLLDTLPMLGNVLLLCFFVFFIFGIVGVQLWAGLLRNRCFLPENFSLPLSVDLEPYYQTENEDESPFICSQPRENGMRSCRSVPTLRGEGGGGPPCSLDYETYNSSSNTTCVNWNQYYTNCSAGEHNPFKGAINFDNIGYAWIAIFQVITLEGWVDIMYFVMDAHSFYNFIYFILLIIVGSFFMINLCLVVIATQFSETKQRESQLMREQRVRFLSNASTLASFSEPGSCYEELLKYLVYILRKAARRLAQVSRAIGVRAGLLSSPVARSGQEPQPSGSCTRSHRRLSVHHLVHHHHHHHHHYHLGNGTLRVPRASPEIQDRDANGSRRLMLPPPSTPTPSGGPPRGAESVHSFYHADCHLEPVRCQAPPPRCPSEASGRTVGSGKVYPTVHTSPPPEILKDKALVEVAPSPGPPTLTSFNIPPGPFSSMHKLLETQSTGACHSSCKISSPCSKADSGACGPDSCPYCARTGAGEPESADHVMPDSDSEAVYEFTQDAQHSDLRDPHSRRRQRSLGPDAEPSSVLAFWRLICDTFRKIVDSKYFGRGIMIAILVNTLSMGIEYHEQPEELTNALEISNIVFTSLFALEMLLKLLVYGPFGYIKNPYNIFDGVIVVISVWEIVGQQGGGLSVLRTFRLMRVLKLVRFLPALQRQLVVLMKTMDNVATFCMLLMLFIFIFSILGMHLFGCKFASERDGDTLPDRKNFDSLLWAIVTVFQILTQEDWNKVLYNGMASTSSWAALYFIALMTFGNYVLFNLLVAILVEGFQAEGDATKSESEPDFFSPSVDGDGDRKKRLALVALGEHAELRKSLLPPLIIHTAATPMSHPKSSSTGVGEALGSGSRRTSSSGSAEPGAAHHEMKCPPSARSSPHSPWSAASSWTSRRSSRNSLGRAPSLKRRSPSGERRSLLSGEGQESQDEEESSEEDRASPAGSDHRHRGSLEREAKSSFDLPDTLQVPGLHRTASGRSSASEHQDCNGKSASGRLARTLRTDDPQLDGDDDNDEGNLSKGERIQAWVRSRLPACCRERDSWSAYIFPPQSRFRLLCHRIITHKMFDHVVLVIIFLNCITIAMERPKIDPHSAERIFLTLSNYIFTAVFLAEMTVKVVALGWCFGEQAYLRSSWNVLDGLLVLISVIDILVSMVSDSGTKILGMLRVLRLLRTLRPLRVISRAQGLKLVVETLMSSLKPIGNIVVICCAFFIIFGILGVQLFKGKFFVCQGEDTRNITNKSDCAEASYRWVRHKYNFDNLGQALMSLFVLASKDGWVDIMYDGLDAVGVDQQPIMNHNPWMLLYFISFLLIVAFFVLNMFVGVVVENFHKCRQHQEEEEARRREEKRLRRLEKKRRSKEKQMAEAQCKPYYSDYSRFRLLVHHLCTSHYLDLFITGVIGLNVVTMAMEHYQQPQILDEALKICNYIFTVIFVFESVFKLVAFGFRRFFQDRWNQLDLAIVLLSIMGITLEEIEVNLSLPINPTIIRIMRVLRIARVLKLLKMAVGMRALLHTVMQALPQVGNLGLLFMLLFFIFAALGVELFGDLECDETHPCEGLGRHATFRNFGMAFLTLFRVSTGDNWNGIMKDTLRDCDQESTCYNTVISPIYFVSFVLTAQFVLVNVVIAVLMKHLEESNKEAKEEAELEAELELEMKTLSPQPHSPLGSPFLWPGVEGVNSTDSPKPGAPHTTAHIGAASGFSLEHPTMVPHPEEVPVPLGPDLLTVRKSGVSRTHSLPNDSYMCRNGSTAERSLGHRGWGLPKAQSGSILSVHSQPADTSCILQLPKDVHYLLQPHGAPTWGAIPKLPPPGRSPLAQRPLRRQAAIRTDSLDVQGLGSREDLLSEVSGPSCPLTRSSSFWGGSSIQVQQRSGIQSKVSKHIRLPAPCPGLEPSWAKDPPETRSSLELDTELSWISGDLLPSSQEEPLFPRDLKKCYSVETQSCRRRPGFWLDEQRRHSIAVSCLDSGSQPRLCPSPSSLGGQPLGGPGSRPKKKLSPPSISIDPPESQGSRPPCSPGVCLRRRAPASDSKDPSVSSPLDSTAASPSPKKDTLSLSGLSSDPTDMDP
Protocol: (§1) Cell Culture—INS-1 cells were cultured in RPMI 1640 medium containing 10% FBS, 25 U/ml penicillin, […] streptomycin and 50 μM mercaptoethanol in an atmosphere of 5% CO2 in air, at 37° C. for 2-5 days before recording.
(§2) β-cells Electrophysiological recording—The whole-cell recordings were carried out by the standard “giga-seal” patch clamp technique (Hamill et al.). The whole-cell recording pipettes were made of hemocapillaries (Warner), pulled by a two-stage puller (PC-10, Narishige International, New York, N.Y.), and heat polished with a microforge (MF200-1, World Precision Instruments, Sarasota, Fla.) before use. Pipette resistance was in the range of 2-5 MΩ in the internal solution. The recordings were performed at room temperature (22-25° C.). Currents were recorded using an EPC-9 patch-clamp amplifier (HEKA) and filtered at 2.9 kHz. Data were acquired with Pulse/PulseFit software (HEKA). Voltage-dependent currents were corrected for linear leak and residual capacitance by using an on-line P/n subtraction paradigm.
(§3) Solutions—The extracellular solution used in whole-cell Ca^2+ current recording contained (in mM): 10 CaCl21 110 tetraethylammonium-Cl (TEA-Cl), 10 CsCl, 10 N-2-hydroxyethylpiperazine-N′-2-ethanesulfonic acid (HEPES), 40 sucrose, 0.5 3,4-diaminopyridine, pH 7.3. The intracellular solution contained (in mM): 130 N-methyl-D-glucamine, 20 EGTA (free acid), 5 bis (2-aminophenoxy) ethane-N,N,N′,N′-tetraacetate (BAPTA), 10 HEPES, 6 MgCl2, 4 Ca(OH)2/pH was adjusted to 7.4 with methanesulfonate. 2 mM Mg-ATP was included in the pipette solution to minimize rundown of L-type Ca^2+ currents. For Perforated-patch recording, the extracellular solution contained (in mM): 26 Sucrose, 30 TEA-Cl, 10 HEPES, 5 KCl, 2 CaCl2, MgCl2, pH 7.3. The pipette solution contained (in mM): 65 CsOH, 65 CsMS, 20 sucrose, 10 HEPES, 10 MgCl2, 1 Ca(OH)2, pH 7.4.
(§4) The T-type Ca^2+ current was measured at −30 mV when the membrane was held at −90 mV and the L-type current was measured at +20 mV when the membrane was held at −40 mV. The currents were measured twice at each concentration of mibefradil with 2 min in between measurements.
(§5) A drug diffusing system was then used to test the reversibility of the antagonism of T- and L-type Ca^2+ currents by mibefradil. Small volumes (approximately 2 μl) of drugs were delivered in close proximity to the recording cell with a quartz capillary positioned by a micromanipulator. After administration, drugs diffused throughout the entire recording chamber containing 2 ml of bath solution. This drug diffusing system was used to test the reversibility of 30 μM of NiCl2 on the T-type Ca^2+ currents (FIG. 4).

[4] = system: β-TC3 cells; assay: Cytokine-induced DNA fragmentation in β-TC3 cells; format: cell-based, mouse; settings: β-TC3 cells (n=2); same results in NIT-1 cells (n=3)
[5] = system: mouse islet cells; assay: Cytokine-induced increase in basal [Ca^2+]i in primary cultured mouse islet cells; format: cell-based; settings: 10 μM; IL-1β 25 U/ml and IFNγ 300 U/ml for 6 h
Description: LVA Ca^2+ channels are activated at low membrane potentials. This unique feature may allow then to regular [Ca^2+]i under nonstimulatory conditions. Indeed, basal [Ca^2+]i in cytokine-treated cells was approximately 3-fold higher than in nontreated cells (FIG. 24A).

[6] = system: INS-1 cells; assay: Action potentials (excitability) of INS-1 cells; format: cell-based, rat; settings: 100 μM
Protocol: Particularly, activation of T type Ca^2+ channels will increase the firing frequency of the depolarizing spikes mediated by opening L type Ca^2+ channels (FIG. 19A). Activation of T type Ca^2+ channel will also decrease the time of developing action potential elicited by up-threshold depolarizations (FIG. 19B).
To further establish that T type Ca^2+ current enhances β-cells excitability, 100 μM NiCl2 was administered to effectively block T type Ca^2+ channels.

[7] = system: β-TC3 cells; assay: Cytokine-induced cell death in β-TC3 cells; format: cell-based, mouse; settings: NiCl2 20 μM, nifedipine 10 μM; IL-1β 25 U/ml, IFNγ 100 U/ml, TNFα 100 U/ml
Description: The function of LVA Ca^2+ channels in cytokine-mediated cell death in β-TC3 cells was then examined.

[8] = system: INS-1 cells; assay: Glucose-induced insulin secretion in INS-1 cells; format: cell-based, rat; settings: 11.1 mM glucose, variable concentrations of NiCl2
[9] = system: LVA Ca^2+ current; assay: Cytokine-induced LVA Ca^2+ current in primary cultured mouse islet cells; format: cell-based; settings: 10 μM; IL-1β 25 U/ml and IFNγ 300 U/ml for 6 h; n=4
Protocol: The effects of chronic cytokine treatment on the voltage-sensitive Ca^2+ currents in primary cultured mouse islet cells was examined. After treatment with IL-1β (25 U/ml) and IFNγ (300 U/ml) for 6 h, an LVA Ca^2+ current was induced in these cells (FIG. 23A). This current was present in 48% of cytokine-treated mouse islet cells. No such current was observed when the cells were treated with either IL-1β or IFNγ alone. […] This LVA current has not been observed in non-treated cells. […] It has been reported that low concentration of NiCl2 selectively block LVA current, a profound […] in Ca^2+ current density was observed over the voltages between −20 and 20 mV.

[10] = system: INS-1 cells; assay: Transient spontaneous calcium spikes in a single INS-1 cell, epi-fluorescence; format: cell-based, rat; settings: 30 μM, bath solution without glucose
Description: The cellular mechanism of the spontaneous elevation of intracellular Ca^2+ was investigated with the epi-fluorescence measurement method. […] The Role of T-type Ca^2+ channels in this spontaneous process was examined as well. […] These spontaneous calcium spikes may contribute to basal insulin secretion and control of basal [Ca^2+]i.

[11] = system: HIT-T15; assay: Glucose-induced insulin secretion in HIT-T15 cells; format: cell-based; settings: 11.1 mM glucose, variable concentrations of NiCl2
[12] = system: L-type Ca^2+ current; assay: Patch clamp recording (whole-cell and perforated patch) of L-type Ca^2+ current in insulin-secreting (INS-1) cells; format: cell-based, rat; settings: for effect on L-type Ca^2+ current from inside of cells: 1 μM in the pipette solution, 5 min after patch formation
Protocol: as §1, §2, §3, §4, §5
This hypothesis was tested by applying a very low dose of mibefradil on cells and recording the L-type Ca^2+ currents for a long time in the perforated patch-clamp configuration.

[13] = rat; cited from earlier work
[14] = system: NIT-1 cells; assay: Cytokine-induced cell death in NIT-1 cells; format: cell-based, mouse
[15] = Mass spectrometric analysis of mibefradil and dm-mibefradil in INS-1 cells
Protocol: Mass Spectrometric Analysis—A VG 70-250 SEQ instrument (VG Analytical, Manchaster, UK) was used with fast atom bombardment (FAB) ionization mode to obtain mass spectra of the mibefradil and dm-mibefradil. Cultured INS-1 cells were treated with 20 μM mibefradil for various lengths of time under each experimental condition. The cell pellets were collected after washing three times with PBS and resuspended in 0.5 ml media for mass spectrometric analysis. For a 50 μl cell sample, 20 μl internal standard solution (40 μM verapamil, MW: 454) and 5 μl glycerol was added, and 4 μl of this mixture was used for FAB-MS. Several positive ion spectra were recorded in the mass range m/z 750-100 at a mass resolution of 1000, and a scan speed of 2 second/decade. For mibefradil, m/z 496 was the dominant ion (M+H)^+ accompanied with a less intense sodiated molecular ion m/z 518. The concentrations of the mibefradil and hydrolyzed mibefradil were obtained by comparing the intensities of m/z 496 and 424 were to the intensity of m/z 455. For calibration, a standard solution of 50 μM drug was subjected to mass spectrometric analysis.
To test the hypothesis that mibefradil may permeate through the cell membrane to the cytoplasm and be trapped inside cells, the presence of mibefradil was examined in cells pre-incubated with 20 μM of mibefradil using mass spectrometry. […] The localization of mibefradil in cells was examined by measuring the concentration of mibefradil in the pellets and supernatants after lysis of the cells.

[16] = system: NIT-1 cells; assay: Basal insulin secretion in NIT-1 cells; format: cell-based, mouse; settings: 5 μM mibefradil, 3 mM glucose
Description: NIT-1 is a cell line derived from the β-cells of non-obese-diabetic mouse. This cell line expressed high levels of T-type Ca^2+ current.

[17] = system: T-type Ca^2+ current; settings: vascular smooth muscle cells; cited from earlier work
[18] = 5 mM for 1 hour, followed by 3 hour recovery
[19] = cells pre-incubated with 20 μM mibefradil

Structure (SMILES): CN(N=O)C(=O)N[C@H]1C(O)O[C@H](CO)[C@@H](O)[C@@H]1O (mixture of isomers) [streptozotocin]
- calcium influx on stimulation by 50 KCl [1, 18]: reduced calcium influx compared to control cells
- change in basal calcium [1, 18]: two-fold increase in basal calcium

Structure (SMILES): [Cl][Ni][Cl] [NiCl2]
- inhibition of spontaneous elevation of basal Ca^2+ [2]: 90%
- amplitude of T-type current after drug delivery, % of initial level ([3]; drug diffusing system, about 2 μl of 30 μM delivered near the cell, rapid reduction): 40%
- amplitude of T-type current after recovery, % of initial level ([3]; drug diffusing system, about 2 μl of 30 μM, within 3 minutes): 80%
- reversibility of the inhibition of T-type Ca^2+ current ([3]; drug diffusing system): reversibly block T type Ca^2+ current
- effect on cytokine-induced DNA fragmentation [4]: prevented cytokine-induced DNA fragmentation
- effect on cytokine-induced increase in basal [Ca^2+]i [5]: blocked; also recorded: prevented the increase in [Ca^2+]i
- onset and number of action potentials [6]: a delay in the onset of an action potential and a decrease in number of action potentials
- effect on cytokine-induced cell death [7]: effectively reduced the β-cells killing potency of cytokines; also recorded: significantly reduced cell death
- insulin secretion [8]: reduced insulin secretion in a dose-dependent manner
- block of cytokine-induced LVA Ca^2+ current [9]: blocked
- frequency of spontaneous calcium spikes [10]: reduced the frequency of spontaneous calcium spikes immediately; also recorded: reduced the frequency of transient spontaneous elevation of [Ca^2+]i
- insulin secretion [11]: not affected

Structure (SMILES): N=C(N)NC(=O)c1nc(Cl)c(N)nc1N [amiloride]
- effect on cytokine-induced DNA fragmentation [4]: prevented cytokine-induced DNA fragmentation

Structure (SMILES): CC(C)[C@H]1c2ccc(F)cc2CC[C@]1(O)CCN(C)CCCc1nc2ccccc2[nH]1.Cl [dm-mibefradil, (1S,2S)-2-[2-[[3-(2-Benzimidazolyl)propyl]methylamino]ethyl]-6-fluoro-1,2,3,4-tetrahydro-1-isopropyl-2-napthyl hydroxy hydrochloride]
- effect on L-type Ca^2+ current from inside of cells ([12]; whole-cell): specifically blocked

Structure (SMILES): COCC(=O)O[C@]1(CCN(C)CCCc2nc3ccccc3[nH]2)CCc2cc(F)ccc2[C@@H]1C(C)C [mibefradil, (1S,2S)-2-[2-[[3-(2-Benzimidazolyl)propyl]methyl-amino]ethyl]-6-fluoro-1,2,3,4-tetrahydro-1-isopropyl-2-napthyl methoxy-acetate dihydrochloride]
- long-term effect on the T-type Ca^2+ current ([3]; 10 nM, perforated patch): no long-term effect
- block of T-type Ca^2+ current ([3]; 1 μM in recording chamber, conventional whole cell patch clamp, dihydrochloride): blocks T- and L-type Ca^2+ current
- effect on T-type Ca^2+ current from inside of cells ([3]; 1 μM in the pipette solution, whole-cell, 5 min after patch formation): did not have inhibitory effects
- sensitivity of T-type versus L-type Ca^2+ current ([3]; 1 μM, pancreatic β-cells): more sensitive
- reversibility of the inhibition of T-type Ca^2+ current ([3]; drug diffusing system, dihydrochloride): clearly reversible; also recorded: reversibly block T type Ca^2+ current
- time dependence of the inhibition of T-type Ca^2+ current ([3]; whole-cell patch clamp, bath perfusion): No time-dependent inhibition
- effect on cytokine-induced DNA fragmentation [4]: prevented cytokine-induced DNA fragmentation
- effect on development of hyperinsulinemia [13]: prevented and reversed development of hyperinsulinemia
- effect on cytokine-induced cell death [14]: reduced β-cells death induced by cytokines
- effect on basal [Ca^2+]i ([1]; 1 μM, single INS-1 cell with basal [Ca^2+]i near 150 nM, no glucose, dihydrochloride): immediately lowered the basal calcium; also recorded: reduced basal [Ca^2+]i
- concentration of intracellular mibefradil ([15]; cells incubated with 20 μM mibefradil for one minute, 3 washes, n=3): 3.18 ± 0.78 µM
- share of mibefradil detected in the supernatants after lysis of the cells [15, 19]: 92%
- share of mibefradil found in the pellets after washing with methanol [15, 19]: 0%
- basal insulin secretion relative to control [16]: less than 40
- relative L-type Ca^2+ currents ([12]; 10 nM mibefradil, after 25 minutes, perforated patch-clamp): 70%
- L-type current densities after incubation ([12]; 10 nM mibefradil, two hours incubation, perforated patches): further reduction of current densities
- effect on L-type Ca^2+ current from inside of cells ([12]; whole-cell): did not have inhibitory effects
- L-type Ca^2+ current, % of the beginning amplitude ([12]; 1 μM mibefradil, after 10 minutes, whole-cell, n=4): up to 70%
- block of L-type Ca^2+ current ([12]; 1 μM, INS-1 cells): blocks T- and L-type Ca^2+ current
- reversibility of the inhibition of L-type Ca^2+ current ([12]; drug diffusing system, perforated patch): poorly reversible
- inhibitory effect on T-type Ca^2+ current [17]: potent inhibitory effect
